Patent US10343991B2, “C5, C6 substituted and/or fused oxindoles as anti-cancer agents and process for preparation thereof” (Council of Scientific & Industrial Research, priority 2016, dated 2019)

Columns and labels:
THP1 cells [1] = test: Trypan blue assay, cell viability; assay type: cell-based; conditions: Homo sapiens, THP-1, 48 h, average of three experiments
Method: (§1) In order to determine the anticancer potency, the synthesized oxindole derivatives were evaluated for anti-cancer activity various different human cancer cell lines, Leukemic Cancer (THP1), human breast cancer (MDA-MB-231 and MCF-7), human cervix carcinoma cells (HeLa), prostate cancer (DU-145) cellS by using standard Trypan blue and SRB assays. The preliminary anticancer activity for all the synthesized compounds was done at 10 μM concentration and cell inhibition was determined. […] The experiment was repeated thrice and the average values were taken.
The assay was carried out in a 24 well flat-bottomed microtiter tissue culture plate. THP1 cells were seeded in the plates with a density of 4×10^4 cells/well (counted by tryphan blue exclusion dye method). Compounds were added to obtain a concentration of 10 μM. Sunitinib was used as positive control. Plates were incubated for 48 h at 37° C. in a humidified incubator with 5% CO2. At the end of the treatments, cells (THP1) were resuspended in 0.4% trypan blue and percent cell viability was counted using countess cell chamber (Life Technologies).

DU-145 cells = test: SRB assay, cell viability; assay type: cell-based; conditions: Homo sapiens, 48 h, average of three experiments, read-out: DU145 Cell Viability at 10 μM
Method: as §1
(§2) The assay was carried out in a 24 well flat-bottomed microtiter tissue culture plate. Cells were seeded in the plates with a density of 4×10^4 cells/well (counted by tryphan blue exclusion dye method). After 24 hours media was replaced with fresh media and then compounds were added to obtain a concentrations of 10 μM. Sunitinib was used as positive control. Plates were incubated for 48 h at 37° C. in a humidified incubator with 5% CO2. After 48 hours without removing the cell culture supernatant, 500 μl of cold 10% (wt/vol) TCA was added to each well, and the plates were incubated at 4° C. for 1 h. The plates were washed for four times with water then rinsed with water several times to remove TCA, serum, proteins and excess water was removed using paper towels and air dried. 100 μl of 0.4% (wt/vol in 1% acetic acid) SRB solution was added to each well. Plates were left at room temperature for 30 min and then the plates were quickly rinsed for four times with 1% (vol/vol) acetic acid to remove unbound dye were and then air dried until no moisture was visible. 100 μl of 10 mM Tris base solution (pH 10.5) was added to each well and shake for 5 min to solubilize the protein-bound dye. Optical density was measured at 564 nm in a micro plate reader.

MCF-7 cells = test: SRB assay, cell viability; assay type: cell-based; conditions: Homo sapiens, MCF7, 48 h, average of three experiments
Method: as §1, §2

MDA-MB-231 cells = test: SRB assay, cell viability; assay type: cell-based; conditions: Homo sapiens, 48 h, average of three experiments
Method: as §1, §2

HeLa cells = test: SRB assay, cell viability; assay type: cell-based; conditions: Homo sapiens, 48 h, average of three experiments
Method: as §1, §2

[2] = system: VEGF tyrosin kinase (VEGFR); test: VEGFR activity, phosphotyrosine (PY) cell-based ELISA; conditions: 10 μM, 60 min pretreatment, VEGF stimulation
Method: Briefly, cells at 60-75% confluence were placed in serum-free medium for 18 h to reduce the background of phosphorylation. Cells were then pretreated for 60 min with 2b, 3d, 3e, 3g, 3h, 3i, 3j and 3k compounds at 10 μM concentration followed by an optimized dose of purified growth factor (VEGF). The reaction was stopped, and cells were permeabilized by quickly removing the media from the cells and adding ice-cold Tris-buffered saline (TBS) containing 0.05% triton X-100, protease inhibitor cocktail, and tyrosine phosphatase inhibitor cocktail (both from Sigma Chemical). The TBS solution was then removed, and cells were fixed to the plate by heat and further incubation in 70% ethanol. Cells were further exposed to block (TBS with 1% BSA) and washed, and then a horseradish peroxidase (HRP)-conjugated phosphotyrosine antibody was added. The antibody was removed; cells were washed again and exposed to an enhanced luminol ELISA substrate, and light emission was measured using a plate reader. The known RTK-specific kinase inhibitor (Sunitinib) was used as positive control for kinase inhibition.

THP1 cells [3] = assay type: cell-based, human; conditions: THP-1 cells, 10 μM, 24 h; untreated cells 68.3%
Method: To understand the anticancer activity mechanism of the synthesized oxindole derivatives, we analysed the cell cycle alteration phase distribution of the cells by treating THP1 cells with oxindole derivatives at 10 μM, for 24 h and analyzed by flow cytometry. Treatment of THP-1 cells with compounds 2b, 3d, 3e, 3g, 3h, 3i, 3j and 3k caused an accumulation of 98.5%, 94.3%, 96.7%, 97%, 98%, 83%, 93.5%, 98.1% cells in the G0/G1 phase respectively as compared to 68.3% in untreated cells and 99.5% in Sunitinib treated cells. […] (Fig. x and Table .y).
The THP1 cells were treated with the active compounds at […] and incubated for about 24 h. The cells were fixed in ice cold ethanol solvent at 4° C. for about 30 minutes. The ethanol was removed and cells were treated with 1 mL of DNA staining solution (2 mg of RNase and 0.2 mg of propidium iodide (PI)) for 30 minutes. The DNA content was measured by flow cytometry (BD FACS C anto II). Results were analysed using FCS express 4 plus software.

| melting point | SMILES | viability at 10 µM (THP1 cells [1]) | viability at 10 µM (DU-145 cells) | viability at 10 µM (MCF-7 cells) | viability at 10 µM (MDA-MB-231 cells) | viability at 10 µM (HeLa cells) | inhibitory activity of VEGF tyrosin kinase activity [2] | accumulation of cells in the G0/G1 phase (THP1 cells [3]) |
| --- | --- | --- | --- | --- | --- | --- | --- | --- |
| 195 to 196 °C | O=C1Cc2cc(C(C#Cc3ccccc3)c3ccccc3)c(O)cc2N1 (stereo not shown) [Compound 2a, 5-(1,3-Diphenylprop-2-yn-1-yl)-6-hydroxyindolin-2-one] | 34.5% | 41.7% | 39.7% | 71.3% | 36.6% | – | – |
| 196 to 198 °C | O=C1Cc2cc3c(-c4ccccc4)c(Cc4ccccc4)oc3cc2N1 [Compound 3a, 2-Benzyl-3-phenyl-5H-furo[3,2-f]indol-6(7H)-one] | 53.6% | 21.7% | 51.1% | 53.8% | 27.6% | – | – |
| 185 to 186 °C | Cc1ccc(S(=O)(=O)n2cc(C(C#Cc3ccccc3)c3cc4c(cc3O)NC(=O)/C4=C\c3[nH]c(C)cc3C)c3ccccc32)cc1 (stereo not shown) [Compound 3g, (Z)-3-((3,5-dimethyl-1H-pyrrol-2-yl)methylene)-6-hydroxy-5-(3-phenyl-1-(1-tosyl-1H-indol-3-yl)prop-2-yn-1-yl)indolin-2-one] | 104% | 94.3% | 91.5% | 63.8% | 88.3% | inhibitory activity | 97% |
| 182 to 185 °C | Cc1ccsc1/C=C1\C(=O)Nc2cc(O)c(C(C#Cc3ccccc3)c3ccccc3)cc21 (stereo not shown) [Compound 3d, (Z)-5-(1,3-diphenylprop-2-yn-1-yl)-6-hydroxy-3-((3-methylthiophen-2-yl)methylene)indolin-2-one] | 33.3% | 45.5% | 30.7% | 35.9% | 71.3% | inhibitory activity | 94.3% |
| 181 to 183 °C | COc1cccc(C(C#CCOCc2ccccc2)c2cc3c(cc2O)NC(=O)/C3=C\c2[nH]c(C)cc2C)c1OC (stereo not shown) [Compound 3f] | 30.2% | 62.1% | 33.1% | 37.7% | 39.4% | – | – |
| – | COc1cccc(-c2c(COCc3ccccc3)oc3cc4c(cc23)/C(=C/c2[nH]c(C)cc2C)C(=O)N4)c1OC [Compound 3k, (Z)-2-((benzyloxy)methyl)-3-(2,3-dimethoxyphenyl)-5-((3,5-dimethyl-1H-pyrrol-2-yl)methylene)-5H-furo[3,2-f]indol-6(7H)-one] | 80.5% | 62.7% | 43.1% | 109% | 38.9% | inhibitory activity | 98.1% |
| 188 to 192 °C | CN(C)c1ccc(/C=C2\C(=O)Nc3cc(O)c(C(C#Cc4ccccc4)c4ccccc4)cc32)c2ccccc12 (stereo not shown) [Compound 3e, (Z)-3-((4-(dimethylamino)naphthalen-1-yl)methylene)-5-(1,3-diphenylprop-2-yn-1-yl)-6-hydroxyindolin-2-one] | 125% | 48.2% | 78.2% | 85.9% | 153% | inhibitory activity | 96.7% |
| 174 to 176 °C | Cc1ccc(S(=O)(=O)n2cc(-c3c(Cc4ccccc4)oc4cc5c(cc34)/C(=C/c3[nH]c(C)cc3C)C(=O)N5)c3ccccc32)cc1 [Compound 3m, (Z)-2-benzyl-5-((3,5-dimethyl-1H-pyrrol-2-yl)methylene)-3-(1-tosyl-1H-indol-3-yl)-5H-furo[3,2-f]indol-6(7H)-one] | 68.2% | 91.7% | 71.4% | 75.5% | 87.6% | – | – |
| – | CCN(CC)CCNC(=O)c1c(C)[nH]c(/C=C2\C(=O)Nc3ccc(F)cc32)c1C [SUNT, Sunitinib, reference compound] | 35.2% | 35% | 34.3% | 39.5% | 37.1% | – | 99.5% |
| 241 to 245 °C | CN(C)c1ccc(/C=C2\C(=O)Nc3cc4oc(Cc5ccccc5)c(-c5ccccc5)c4cc32)c2ccccc12 [Compound 3j, (Z)-2-benzyl-5-((4-(dimethylamino)naphthalen-1-yl)methylene)-3-phenyl-5H-furo[3,2-f]indol-6(7H)-one] | 83.3% | 45.2% | 37.8% | 71.3% | 107% | inhibitory activity | 93.5% |
| 173 to 179 °C | Cc1cc(C)c(/C=C2\C(=O)Nc3cc(O)c(C(C#Cc4ccccc4)c4ccccc4)cc32)[nH]1 (stereo not shown) [Compound 3c, (Z)-3-((3,5-dimethyl-1H-pyrrol-2-yl)methylene)-5-(1,3-diphenylprop-2-yn-1-yl)-6-hydroxyindolin-2-one] | 125% | 81.3% | 49.9% | 74.5% | 78.2% | – | – |
| 120 to 122 °C | COc1cccc(-c2c(CCOCc3ccccc3)oc3cc4c(cc23)CC(=O)N4)c1OC [Compound 3b, 2-(2-(Benzyloxy)ethyl)-3-(2,3-dimethoxyphenyl)-5H-furo [3,2-f] indol-6(7H)-one] | 75.5% | 69.2% | 49.3% | 72.5% | 40.5% | – | – |
| 177 to 179 °C | COc1cccc(C(C#CCOCc2ccccc2)c2cc3c(cc2O)NC(=O)C3)c1OC (stereo not shown) [Compound 2b, 5-(4-(Benzyloxy)-1-(2,3-dimethoxyphenyl)but-2-ynyl)-6-hydroxyindolin-2-one] | 48.5% | 51.2% | 39.8% | 42.8% | 40.4% | inhibitory activity | 98.5% |
| – | COc1cccc(-c2c(COCc3ccccc3)oc3cc4c(cc23)/C(=C/c2sccc2C)C(=O)N4)c1OC [Compound 3l, (Z)-2-((benzyloxy)methyl)-3-(2,3-dimethoxyphenyl)-5-((3-methylthiophen-2-yl)methylene)-5H-furo[3,2-f]indol-6(7H)-one] | 106% | 49.7% | 79% | 111% | 52% | – | – |
